Laboratory results from US12458732B2, “Porous composites with high-aspect ratio crystals” (W. L. Gore & Associates, Inc., priority 2013, dated 2025).

Assays:
[1] = ethylene oxide sterilization of coated ePTFE substrates, SEM visualization; type: physicochemical; conditions: conditioning about 24 hr, EtO dwell about 22 hr, 64° C., aeration about 12 hrs; samples of Examples 6 and 7
Procedure: Representative samples of Examples 6 and 7 were exposed to ethylene oxide sterilization, under conditions of conditioning for about 24 hr, an EtO gas dwell time of about 22 hr, a set point temperature of 64° C., and an aeration time of about 12 hrs. The samples were then visualized with SEM.

[2] = system: carotid artery endothelial layer; test: ex vivo transfer of drug crystals from an ePTFE substrate to a vascular tissue; parameters: species or system swine; conditions: 60 sec compression at 5.4 atm
Procedure: Substrates of ePTFE of Examples 1 and 2 were coated with paclitaxel (10 mg/ml) or paclitaxel/urea (1:1 mass ratio; 10 mg/ml paclitaxel) according to Example 4. The substrates were examined under SEM to confirm the presence of high aspect paclitaxel crystal habits embedded and oriented in the ePTFE microstructure.
A freshly harvested carotid artery from >2 yr old swine (Animal Technologies Inc., Tyler TX) was slit axially using a scalpel blade, cut lengthwise into portions, everted, and the portions adhered to a glass microscope slide using cyanoacrylate adhesive (Loctite), luminal aspect up. Tissue portions were kept wet using phosphate-buffered saline until use.
The glass microscope slide containing the artery portion was gently placed, tissue side down, upon the coated ePTFE substrate, to expose the endothelial layer to the paclitaxel crystals. The endothelial layer was compressed at about 5.4 atm against the coated ePTFE substrate for 60 sec. The glass microscope slide containing the artery portion was then examined under SEM.

acicular habits, geometry, penetration into ePTFE and angles of projection after ethylene oxide sterilization [1]: unaffected
high aspect ratio of the crystals after compression (mechanical stability and strength) [2]: intact
Compound: CC(=O)O[C@H]1C(=O)[C@@]2(C)[C@H]([C@H](OC(=O)c3ccccc3)[C@]3(O)C[C@H](OC(=O)[C@H](O)[C@@H](NC(=O)c4ccccc4)c4ccccc4)C(C)=C1C3(C)C)[C@]1(OC(C)=O)CO[C@@H]1C[C@@H]2O [paclitaxel]
